Reference: ChEMBL document CHEMBL5725372, “Inhibitors of sodium glucose cotransporter 1” (2017)

Molecular target: T1, Sodium/glucose cotransporter 2 (Homo sapiens, UniProt P31639)
T1 sequence (P31639 whole entry): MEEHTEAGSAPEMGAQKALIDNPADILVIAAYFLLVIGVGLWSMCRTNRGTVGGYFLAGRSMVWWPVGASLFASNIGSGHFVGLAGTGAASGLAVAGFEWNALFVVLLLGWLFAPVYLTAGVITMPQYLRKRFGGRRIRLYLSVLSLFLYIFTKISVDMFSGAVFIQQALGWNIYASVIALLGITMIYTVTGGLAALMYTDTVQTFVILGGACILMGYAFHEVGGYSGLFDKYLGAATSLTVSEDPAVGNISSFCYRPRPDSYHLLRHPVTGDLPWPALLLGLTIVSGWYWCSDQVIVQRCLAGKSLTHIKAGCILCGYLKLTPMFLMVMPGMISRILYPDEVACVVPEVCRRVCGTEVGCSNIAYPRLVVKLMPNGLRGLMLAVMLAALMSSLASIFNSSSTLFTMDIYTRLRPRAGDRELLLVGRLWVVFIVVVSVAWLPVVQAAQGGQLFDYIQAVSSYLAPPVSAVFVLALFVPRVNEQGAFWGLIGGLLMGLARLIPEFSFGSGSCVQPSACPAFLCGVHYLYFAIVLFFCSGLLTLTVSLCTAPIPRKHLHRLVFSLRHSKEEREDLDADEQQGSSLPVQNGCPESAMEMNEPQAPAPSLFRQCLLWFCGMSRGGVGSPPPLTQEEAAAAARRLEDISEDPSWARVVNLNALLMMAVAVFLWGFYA
Assay: In Vitro Human SGLT2 Inhibition Assay: Human sodium/glucose co-transporter type 2 (SGLT2; accession number P31639; GI:400337) was cloned into pIRESpuro2 vector for mammalian expression (construct: HA-SGLT2-pIRESpuro2). HEK293 cells were transfected with the human HA-SGLT2-pIRESpuro2 vector and the bulk stable cell line was selected in presence of 0.5 μg/mL of puromycin. Human HA-SGLT2 cells were maintained in DMEM media containing 10% FBS, 1% GPS and 0.5 μg/mL of puromycin. The HEK293 cells expressing the human HA-SGLT2 were seeded in 384 well plates (30,000 cells/well) in DMEM media containing 10% FBS, 1% GPS and 0.5 μg/mL of puromycin, then incubated overnight at 37 C, 5% CO2. Cells were then washed with uptake buffer (140 mM NaCl, 2 mM KCl, 1 mM CaCl2, 1 mM MgCl2, 10 mM HEPES, 5 mM Tris, 1 mg/mL bovine serum albumin (BSA), pH 7.3). Twenty microliters of uptake buffer with or without testing compounds were added to the cells. Then, 20 microliters of uptake buffer containing 14C-AMG (100 nCi) were added to the cells. The cell plates were incubated at 37° C., 5% CO2 for 1-2 hours. After washing the cells with uptake buffer, scintillation fluid was added (40 microliters/well) and 14C-AMG uptake was measured by counting radioactivity using a scintillation coulter ([…]; Packard Instruments).

IC50: < 10 nM
SMILES: CS[C@H]1O[C@@H](c2ccc(C)c(Cc3ccc(OCCNC(=O)NC(C)(C)CO)cc3)c2)[C@H](O)[C@@H](O)[C@@H]1O
